Test results taken from patent US20080090834A1, “SELECTIVE AZOLE PDE10A INHIBITOR COMPOUNDS” (Pfizer Inc, priority 2006, published 2008).
Where a name gives a salt, the structure may show the parent alone.

Each compound was assayed against T1, cloned rat PDE10A full-length enzyme (Rattus norvegicus, UniProt Q9QYJ6) (assay: PDE10 enzyme inhibition, [3H]cAMP scintillation proximity assay). Conditions: rat PDE10A from Sf9 cells, 20 nM [3H]cAMP, SPA beads, 20 minute incubation at room temperature.
T1 construct: cloned rat PDE10A full-length enzyme grown in transfected Sf9 insect cells; made in house; host or cells: Sf9 insect cells
T1 sequence (Q9QYJ6 1-794): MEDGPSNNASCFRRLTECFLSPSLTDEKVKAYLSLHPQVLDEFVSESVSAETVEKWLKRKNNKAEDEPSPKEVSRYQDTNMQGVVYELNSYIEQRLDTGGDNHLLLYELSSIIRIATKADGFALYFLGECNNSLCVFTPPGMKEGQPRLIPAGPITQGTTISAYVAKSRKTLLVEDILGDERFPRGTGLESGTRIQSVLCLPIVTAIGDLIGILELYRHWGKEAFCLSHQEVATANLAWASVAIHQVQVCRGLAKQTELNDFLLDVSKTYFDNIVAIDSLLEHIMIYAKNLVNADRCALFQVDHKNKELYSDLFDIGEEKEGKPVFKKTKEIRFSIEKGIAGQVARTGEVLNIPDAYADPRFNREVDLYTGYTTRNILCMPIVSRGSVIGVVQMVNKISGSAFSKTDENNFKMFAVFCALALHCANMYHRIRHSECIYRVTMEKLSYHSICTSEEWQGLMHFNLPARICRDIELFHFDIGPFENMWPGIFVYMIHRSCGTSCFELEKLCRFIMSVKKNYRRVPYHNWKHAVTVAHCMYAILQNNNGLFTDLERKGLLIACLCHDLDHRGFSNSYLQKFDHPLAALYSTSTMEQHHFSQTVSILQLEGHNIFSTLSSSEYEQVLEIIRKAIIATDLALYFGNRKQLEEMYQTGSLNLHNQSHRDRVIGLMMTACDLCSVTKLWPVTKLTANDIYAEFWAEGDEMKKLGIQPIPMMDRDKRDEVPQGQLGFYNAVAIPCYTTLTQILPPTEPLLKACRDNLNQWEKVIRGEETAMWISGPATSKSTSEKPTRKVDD
Type: biochemical
Protocol: Compounds of the present invention were evaluated for ability to inhibit PDE10 enzyme with the following Assay procedure
The enzyme used in the procedure was cloned rat PDE10A full-length enzyme grown in transfected Sf9 insect cells. Cloned enzyme was extracted from homogenized cell pellets and stored frozen in homogenizing buffer until use. Compounds were initially dissolved in 100% DMSO and diluted out in 20 percent DMSO/water solution. Final concentration of DMSO in the assay was 2 percent as compounds were tested in triplicate in 96 well plates. Compound solution was placed in well, then tritiated cyclic AMP (New England Nuclear NET275) in assay buffer was added at 20 nM concentration. Then PDE10 enzyme in assay buffer of 50 mM Tris, 8.3 mM MgCl2, pH 7.5 at room temperature was added for a final assay volume of 100 ul. Concentration of enzyme was added such that less than 10 percent of [3H]cAMP at 20 nM was converted to detectable end product, [3H]AMP bound to SPA (Scintillation Proximity Assay) beads. Phosphodiesterase scintillation proximity yttrium silicate beads from Amersham Biosciences (RPNQ0150) were added (50 ul at 20 mg/ml) after a 20 minute incubation at room temperature. Zinc sulphate as a component of the beads stops the phosphodiesterase reaction.
Non-specific binding to SPA beads was determined by addition of 1 uM papaverine. Total conversion by enzyme without inhibitor of [3H]cAMP to [3H]AMP, as detected by scintillation of [3H]AMP bound to yttrium silicate beads, was determined in the presence of vehicle-only.

IC50	Compound
16.4 nM	Cc1ccc(-n2cc(-c3cccc[n+]3[O-])nc2-c2ccc(-n3ccc4cccnc43)cc2)c[n+]1[O-] [Example 15]
5.69 nM	Cc1ccc(-n2cc(-c3ccccn3)nc2-c2ccc(-n3ccc4ccncc43)cc2)cn1 [Example 53]
< 1000 nM	Cc1ccc(-n2cc(-c3nccs3)nc2-c2ccc(-n3c(C(F)(F)F)nc4cccnc43)cc2)cn1 [Example 87]
11.5 nM	c1ccc(-c2cn(-c3cccnc3)c(-c3ccc(-n4nnc5cccnc54)cc3)n2)nc1 [Example 51, 3(4-(4-(pyridin-2-yl)-1-(pyridin-3-yl)-1H-imidazol-2-yl)phenyl)-3H-[1,2,3]triazole[4,5-b]pyridine bis-TFA salt]
156 nM	COc1ccc(-n2cc(-c3nccs3)nc2-c2ccc(-n3ccc4cccnc43)cc2)cc1 [Example 2, 1-(4-(1-(4-methoxyphenyl)-4-(thiazol-2-yl)-1H-imidazol-2-yl)phenyl)-1H-pyrrolo[2,3-b]pyridine]
3.35 nM	COc1ccc(-n2cc(-c3cccs3)nc2-c2ccc(-n3ccc4cccnc43)cc2)cc1 [Example 1]
0.831 nM	Cc1ccc(-n2cc(-c3ccccn3)nc2-c2ccc(-n3c(C(C)C)nc4cccnc43)cc2)cn1 [Example 59, 2-isopropyl-3-(4-(1-(6-methylpyridin-3-yl)-4-(pyridin-2-yl)-1H-imidazol-2-yl)phenyl)-3H-imidazo[4,5-b]pyridine]
0.992 nM	c1ccc(-c2cn(-c3cccnc3)c(-c3ccc(-n4c5ccccc5c5cccnc54)cc3)n2)nc1 [Example 19, 9-(4-(4-(pyridin-2-yl)-1-(pyridin-3-yl)-1H-imidazol-2-yl)phenyl)-9H-pyrido[2,3-b]indole]
156 nM	COc1ccnc2c(-c3ccc(-c4nc(-c5ccccn5)cn4-c4cccnc4)cc3)cc(C)cc12 [Example 77]
0.73 nM	Cc1ccc(-n2cc(-c3nccs3)nc2-c2ccc(-n3c(C(F)F)nc4cccnc43)cc2)cn1 [Example 84]
44.1 nM	Cc1ncccc1-n1cc(-c2nccs2)nc1-c1ccc(-n2ccc3cccnc32)cc1 [Example 28, 1-(4-(1-(2-methylpyridin-3-yl)-4-(thiazol-2-yl)-1H-imidazol-2-yl)phenyl]-1H-pyrrolo[2,3-b]pyridine]
0.614 nM	Cc1ccc(-n2cc(-c3cncs3)nc2-c2ccc(-n3c(C(F)(F)F)nc4cccnc43)cc2)cn1 [Example 117, 2-(trifluoromethyl)-3-(4-(1-(6-methylpyridin-3-yl)-4-(thiazol-5-yl)-1H-imidazol-2-yl)phenyl)-3H-imidazo[4,5-b]pyridine]
2.27 nM	Cc1ccc(-n2cc(-c3ccccn3)nc2-c2ccc(-n3ccc4cncnc43)cc2)cn1 [Example 74, 7-(4-(1-(6-methylpyridin-3-yl)-4-(pyridin-2-yl)-1H-imidazol-2-yl)phenyl)-7H-pyrrolo[2,3-d]pyrimidine]
3.94 nM	c1ccc(-c2cn(-c3cccnc3)c(-c3ccc(-c4cccc5cccnc45)cc3)n2)nc1 [Example 79, 8-(4-(4-(pyridin-2-yl)-1-(pyridin-3-yl)-1H-imidazol-2-yl)phenyl)quinoline]
281 nM	c1ccc(-c2cn(-c3cccnc3)c(-c3ccc(-n4ccc5ccccc54)cc3)n2)nc1 [Example 36, 1-(4-(4-(pyridin-2-yl)-1-(pyridin-3-yl)-1H-imidazol-2-yl)phenyl)-1H-indole]
13.8 nM	Cc1csc(-c2cn(-c3cncnc3)c(-c3ccc(-n4ccc5cccnc54)cc3)n2)n1 [Example 63]
54.8 nM	Cc1ccc(-n2cc(-c3ncc(C)s3)nc2-c2ccc(-n3ccc4cccnc43)cc2)cn1 [Example 61, 1-(4-(1-(6-methylpyridin-3-yl)-4(5-methylthiazol-2-yl)-1H-imidazol-2-yl)phenyl)-1H-pyrrolo[2,3-b]pyridine]

IC50	Compound
0.607 nM	CN(C)c1ccc(-n2cc(-c3nccs3)nc2-c2ccc(-n3ccc4cccnc43)cc2)cn1 [Example 30, 5-(2-(4-(1H-pyrrolo[2,3-b]pyridin-1-yl)phenyl)-4-(thiazol-2-yl)-1H-imidazol-1-yl)-N,N′-dimethylpyridin-2-mine]
26.2 nM	c1ccc(-c2nc(-c3ccc(-n4ccc5cccnc54)cc3)n(-c3cccnc3)n2)nc1 [Preparation 123, 1-(4-(5-(pyridin-2-yl)-2-(pyridin-3-yl)-2H-1,2,4-triazol-3-yl)phenyl)-1H-pyrrolo[2,3-b]pyridine]
3.26 nM	c1ccc(-c2cn(-c3cccnc3)c(-c3ccc(-c4nccc5cccnc45)cc3)n2)nc1 [Example 78]
1.13 nM	Cc1ccc(-n2cc(-c3cscn3)nc2-c2ccc(-n3c(C(C)C)nc4cccnc43)cc2)cn1 [Example 98, 2-isopropyl-3-(4-(1-(6-methylpyridin-3-yl)-4-(thiazol-4-yl)-1H-imidazol-2-yl)phenyl)-3H-imidazo[4,5-b]pyridine]
175 nM	Cc1cc(-c2nc(-c3cncs3)[nH]c2-c2cnccn2)ccc1-n1ccc2cccnc21 [Example 112]
160 nM	c1ccc(-c2cn(-c3cncnc3)c(-c3ccc(-c4cccnc4)cc3)n2)nc1 [Example 72]
65.4 nM	N#Cc1cccc2c1ccn2-c1ccc(-c2nc(-c3ccccn3)cn2-c2cccnc2)cc1 [Example 40, 1-(4-(4-(pyridin-2-yl)-1-(pyridin-3-yl)-1H-imidazol-2-yl)phenyl)-1H-indole-4-carbonitrile bis-TFA salt]
27.8 nM	c1ccc(-c2cn(-c3cccnc3)c(-c3ccc(-n4ncc5ccccc54)cc3)n2)nc1 [Example 35, 1-(4-(4-(pyridin-2-yl)-1-(pyridin-3-yl)-1H-imidazol-2-yl)phenyl)-1H-indazole]
4.14 nM	Fc1cc(-n2ccc3cccnc32)ccc1-c1nc(-c2ccccn2)cn1-c1cccnc1 [Example 11, 1-(3-fluoro-4-(4-(pyridin-2-yl)-1-(pyridin-3-yl)-1H-imidazol-2-yl)phenyl)-1H-pyrrolo[2,3-b]pyridine]
30.8 nM	Fc1cccc2ccn(-c3ccc(-c4nc(-c5ccccn5)cn4-c4cccnc4)cc3)c12 [Example 37]
37.1 nM	Cc1ccc(-n2cc(-c3ccccn3)nc2-c2ccc(-n3ccc4cccnc43)cc2C)cn1 [Example 13, 1-(3-methyl-4-(1-(6-methylpyridin-3-yl)-4-(pyridin-2-yl)-1H-imidazol-2-yl)phenyl)-1H-pyrrolo[2,3-b]pyridin]
3.35 nM	C#Cc1cc(C)cnc1N [Example 22A, 3-ethynyl-5-methylpyridin-2-amine]
0.436 nM	c1cnc2c(c1)ccn2-c1ccc(-c2nc(-c3nccs3)cn2-c2ccc(N3CCOCC3)nc2)cc1 [Example 34, 1-(4-(1-(6-morpholinopyridin-3-yl)-4-(thiazol-2-yl)-1H-imidazol-2-yl)phenyl)-1H-pyrrolo[2,3-b]pyridine]
74.2 nM	Cc1nc(-c2cn(-c3cncnc3)c(-c3ccc(-n4ccc5cccnc54)cc3)n2)sc1C [Example 85]
11 nM	COc1ccc(-c2[nH]c(-c3cccs3)nc2-c2ccc(-n3ccnc3)cc2)cc1 [Example 106, 1-(4-(5-(4-methoxyphenyl)-2-(thiophen-2-yl)-1H-imidazol-4-yl)phenyl)-1H-imidazole]
13.4 nM	c1ccc(-n2cc(-c3nccs3)nc2-c2ccc(-n3ccc4cccnc43)cc2)nc1 [Example 24]
1610 nM	c1cnc2c(c1)ccn2-c1ccc(-c2nc(-c3nccs3)cn2-c2nccs2)cc1 [Example 3, 1-(4-(1,4-di(thiazol-2-yl)-1H-imidazol-2-yl)phenyl)-1H-pyrrolo[2,3-b)pyridine]
